Measured values taken from patent US20070043024A1, “Azacyclic compounds as inhibitors of sensory neurone specific channels” (priority 2003, published 2007).
pIC50: −log10 of the molar value.

What follows are compounds tested against T1, human Nav1.8 (hNav1.8) ion channel (Homo sapiens, UniProt Q9Y5Y9) (assay: Inhibition of human Nav1.8 stably expressed in SH-SY-5Y cells (membrane potential dye fluorescence assay)). Settings: Table 1; SH-SY-5Y hNav1.8 cells, inhibition of membrane depolarisation, FLIPR membrane potential dye, 250 nM TTX, test concentration range 100 μM-0.05 μM; read-out: IC50.
T1 construct: expressed in transfected cells
T1 sequence (Q9Y5Y9 whole entry): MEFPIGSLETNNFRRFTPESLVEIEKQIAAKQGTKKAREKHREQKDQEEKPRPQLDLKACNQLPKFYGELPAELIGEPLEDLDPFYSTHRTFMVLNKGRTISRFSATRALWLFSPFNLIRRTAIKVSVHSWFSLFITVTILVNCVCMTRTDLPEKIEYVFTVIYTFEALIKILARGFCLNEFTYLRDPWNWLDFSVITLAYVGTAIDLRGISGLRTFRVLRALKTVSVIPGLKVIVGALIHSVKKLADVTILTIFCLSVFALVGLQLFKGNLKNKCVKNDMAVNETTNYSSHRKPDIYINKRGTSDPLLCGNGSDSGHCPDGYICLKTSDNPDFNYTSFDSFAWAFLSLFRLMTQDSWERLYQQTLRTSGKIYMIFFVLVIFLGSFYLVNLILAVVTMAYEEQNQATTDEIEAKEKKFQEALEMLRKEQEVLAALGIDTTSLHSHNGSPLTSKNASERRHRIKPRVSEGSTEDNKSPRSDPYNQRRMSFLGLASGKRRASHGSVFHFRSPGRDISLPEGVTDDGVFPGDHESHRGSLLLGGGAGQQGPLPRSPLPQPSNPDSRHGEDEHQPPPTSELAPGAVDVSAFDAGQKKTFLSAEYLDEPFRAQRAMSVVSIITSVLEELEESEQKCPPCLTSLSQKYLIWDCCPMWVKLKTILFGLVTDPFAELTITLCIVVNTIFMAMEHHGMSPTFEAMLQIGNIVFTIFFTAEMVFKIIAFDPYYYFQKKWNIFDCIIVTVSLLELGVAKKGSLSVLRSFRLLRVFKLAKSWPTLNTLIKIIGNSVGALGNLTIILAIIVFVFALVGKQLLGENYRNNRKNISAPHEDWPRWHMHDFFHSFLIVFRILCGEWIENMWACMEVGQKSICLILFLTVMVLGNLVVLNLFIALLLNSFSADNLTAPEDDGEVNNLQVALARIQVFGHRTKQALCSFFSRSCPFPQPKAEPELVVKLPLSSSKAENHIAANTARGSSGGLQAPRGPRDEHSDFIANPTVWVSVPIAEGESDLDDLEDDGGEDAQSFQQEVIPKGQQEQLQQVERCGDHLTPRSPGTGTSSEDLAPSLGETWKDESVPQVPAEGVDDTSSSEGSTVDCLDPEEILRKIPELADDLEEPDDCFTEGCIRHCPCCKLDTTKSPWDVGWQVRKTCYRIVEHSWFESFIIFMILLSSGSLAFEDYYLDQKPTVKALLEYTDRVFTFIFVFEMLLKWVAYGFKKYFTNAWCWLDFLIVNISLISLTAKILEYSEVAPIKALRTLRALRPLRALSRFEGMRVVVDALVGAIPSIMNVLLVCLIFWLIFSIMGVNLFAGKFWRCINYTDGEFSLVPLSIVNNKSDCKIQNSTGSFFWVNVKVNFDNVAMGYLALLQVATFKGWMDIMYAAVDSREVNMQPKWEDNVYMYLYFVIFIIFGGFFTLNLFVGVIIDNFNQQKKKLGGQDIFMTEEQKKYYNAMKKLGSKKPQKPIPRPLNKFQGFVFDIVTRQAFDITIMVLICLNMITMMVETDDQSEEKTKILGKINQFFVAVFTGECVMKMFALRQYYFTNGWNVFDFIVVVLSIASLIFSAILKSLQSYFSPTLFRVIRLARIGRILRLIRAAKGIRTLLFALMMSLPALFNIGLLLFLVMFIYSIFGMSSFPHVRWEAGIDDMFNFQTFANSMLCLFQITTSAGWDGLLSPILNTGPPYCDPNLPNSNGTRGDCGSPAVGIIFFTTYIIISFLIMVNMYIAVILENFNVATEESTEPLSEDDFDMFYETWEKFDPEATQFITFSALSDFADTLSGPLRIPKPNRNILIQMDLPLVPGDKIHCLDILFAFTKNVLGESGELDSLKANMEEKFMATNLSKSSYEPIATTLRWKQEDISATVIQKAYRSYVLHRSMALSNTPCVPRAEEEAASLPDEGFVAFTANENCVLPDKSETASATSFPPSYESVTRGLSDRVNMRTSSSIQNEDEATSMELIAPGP
Type: cell-based
Experimental: Inhibition of Human Nav1.8 Stably Expressed in SH-SY-5Y Cells
A SH-SY-5Y neuroblastoma cell line stably expressing the human […] (hNav1.8) ion channel was constructed. This cell line has been used to develop a medium to high throughput assay for determining the ability of test compounds to inhibit membrane depolarisation mediated via the hNav1.8 channel.
SH-SY-5Y hNav1.8 are grown in adherent monolayer culture using 50:50 Ham's F-12/EMEM tissue culture medium supplemented with 15% (v/v) foetal bovine serum; 2 mM L-glutamine, 1% NEAA and 600 μg·ml^−1 Geneticin sulphate. Cells are removed from the tissue culture flask using trypsin/EDTA and re-plated into black walled, clear bottom 96-well assay plates at 50,000 cells·well^−1 24 hours prior to assay.
On the day of assay the cell assay plates are washed to remove cell culture medium using a sodium free assay buffer (145 mM tetramethyl ammonium chloride; 2 mM calcium chloride; 0.8 mM magnesium chloride hexahydrate; 10 mM HEPES; 10 mM glucose; 5 mM potassium chloride, pH 7.4). Fluorescent membrane potential dye solution (FLIPR™ membrane potential dye, Molecular Devices Corporation), containing 10 μM of a pyrethroid to prevent channel inactivation and 250 nM tetrodotoxin (TTX) to reduce interference from TTX-sensitive sodium channels present in the cell line. Test compound, initially dissolved in dimethyl sulfoxide but further diluted in sodium free buffer, is added to achieve the final test concentration range of 100 μM-0.05 μM.
Cell plates are incubated for 30 minutes at room temperature to allow equilibration of dye and test compound. Plates are then transferred to a fluorescence plate reader for fluorescence measurement using an excitation wavelength of 530 nm whilst measuring fluorescence emission at 565 nm. Baseline fluorescence levels are first determined before the addition of a sodium containing buffer (220 mM sodium chloride; 2 mM calcium chloride; 0.8 mM magnesium chloride hexahydrate; […]; 10 mM glucose; 5 mM potassium chloride. pH 7.4) to cause membrane depolarisation in those cells where channel block has not been effected (final sodium concentration=72.5 mM). Membrane depolarisation is registered by an increase in fluorescence emission at 565 nm.
The change in fluorescence seen in each test well upon the addition of sodium containing buffer is calculated relative to the baseline fluorescence for that well. This figure is then used for calculating the IC50 for each test compound.
`Oc1cccc2c1CN(CCCC(c1ccc(F)cc1)c1ccc(F)cc1)CC2` [Example 96, 2-[4,4-Bis-(4-fluoro-phenyl)-butyl]-1,2,3,4-tetrahydro-isoquinolin-8-ol] was tested, and the pIC50 was 5.71.
Work on `COc1cccc2c1CN(CC(=O)NC(c1ccccc1)c1ccccc1)CC2` [Example 19, N-Benzhydryl-2-(8-methoxy-3,4-dihydro-1H-isoquinolin-2-yl)-acetamide] yielded a pIC50 of 6.14.
Work on `Oc1cccc2c1CN(Cc1cc(F)ccc1F)CC2` [Example 92, 2-(2,5-Difluoro-benzyl)-1,2,3,4-tetrahydro-isoquinolin-8-ol] yielded a pIC50 of 5.28.
With `O=C(CN1CCc2ccccc2C1)N1CCN(C(c2ccccc2)c2ccccc2)CC1` [Example 64, 1-(4-Benzhydryl-piperazin-1-yl)-2-(3,4-dihydro-1H-isoquinolin-2-yl)-ethanone] the pIC50 was 5.50.
With `COc1cccc2c1CN(CC(=O)N1CCN(C(c3ccccc3)c3ccccc3)CC1)CC2` [Example 62, 1-(4-benzhydryl-piperazin-1-yl)-2-(8-methoxy-3,4-dihydro-1H-isoquinolin-2-yl)-ethanone] the pIC50 was 5.25.
`O=C(CC(c1ccc(F)cc1)c1ccc(F)cc1)N1CCc2ccccc2C1` [Example 30] showed a pIC50 of 5.80.
In the case of `COc1ccc2c(c1)CN(CCN(Cc1ccccc1)Cc1ccccc1)CC2` [Example 88, Dibenzyl-[2-(7-methoxy-3,4-dihydro-1H-isoquinolin-2-yl)-ethyl]-amine], the pIC50 was 6.24.
For `COc1cccc2c1CN(CC(=O)NCC(c1ccccc1)c1ccccc1)CC2` [Example 61, N-(2,2-Diphenyl-ethyl)-2-(8-methoxy-3,4-dihydro-1H-isoquinolin-2-yl)-acetamide], the pIC50 was 5.59.
In the case of `COc1cccc2c1CN(C(=O)CN(CC(=O)N1CCc3cccc(OC)c3C1)CC(c1ccccc1)c1ccccc1)CC2` [Example 36], the pIC50 was 5.55.

Same assay, conditions: Table 2 (compound numbers of the list in the description); SH-SY-5Y hNav1.8 cells, inhibition of membrane depolarisation, FLIPR membrane potential dye, 250 nM TTX, test concentration range 100 μM-0.05 μM; read-out: IC50
Work on `COc1cccc2c1CN(CC(=O)NNC(=O)N(c1ccccc1)c1ccccc1)CC2` [Compound 186, 1-[(8-Methoxy-3,4-dihydro-1H-isoquinolin-2-yl)-acetyl]-4,4-diphenylsemicarbazide] yielded a pIC50 of 4.54.
In the case of `COc1cccc2c1CN(CC(=O)N(C(C)C)C(C)C)CC2` [Compound 78, N,N-diisopropyl-2-(8-methoxy-3,4-dihydro-1H-isoquinolin-2-yl)-acetamide], the pIC50 was 4.54.
In the case of `Nc1cccc2c1CCN(CC(=O)NCC(c1ccccc1)c1ccccc1)C2` [Compound 123, 2-(5-Amino-3,4-dihydro-1H-isoquinolin-2-yl)-N-(2,2-diphenyl-ethyl)-acetamide], the pIC50 was 5.54.
Compound `O=C(NCCN1CCc2cccc(O)c2C1)N1c2ccccc2Sc2ccccc21` [Compound 160, Phenothiazine-10-carboxylic acid [2-(8-hydroxy-3,4-dihydro-1H-isoquinolin-2-yl)-ethyl]-amide] has a pIC50 of 6.02.
For `COc1cccc2c1CN(CC(=O)NC(C)c1ccccc1)CC2` (centres unmarked) [Compound 105, 2-(8-Methoxy-3,4-dihydro-1H-isoquinolin-2-yl)-N-(1-phenyl-ethyl)-acetamide], the pIC50 was 4.80.
Compound `O=C(CN1CCc2c(O)cccc2C1)N1c2ccccc2Oc2ccccc21` [Compound 195, 2-(5-Hydroxy-3,4-dihydro-1H-isoquinolin-2-yl)-1-phenoxazin-10-yl-ethanone] has a pIC50 of 5.73.
With `O=C(CN1CCc2cccnc2C1)N(c1ccccc1)c1ccccc1` [Compound 181, 2-(5,8-Dihydro-6H-[1,7]naphthyridin-7-yl)-N,N-diphenyl-acetamide] the pIC50 was 4.69.
`Nc1cccc2c1CN(CC(=O)NCCCC(c1ccccc1)c1ccccc1)CC2` [Compound 109, 2-(8-Amino-3,4-dihydro-1H-isoquinolin-2-yl)-N-(4,4-diphenyl-butyl)-acetamide] gave a pIC50 of 5.74.
`COc1cccc2c1CN(CC(=O)N1Cc3ccccc3Oc3ccccc31)CC2` [Compound 207, 1-(11H-Dibenzo[b,f][1,4]oxazepin-10-yl)-2-(8-methoxy-3,4-dihydro-1H-isoquinolin-2-yl)-ethanone] showed a pIC50 of 6.03.
In the case of `COc1cccc2c1CN(CC(=O)N1c3ccccc3Sc3ccc(SC)cc31)CC2` [Compound 159, 2-(8-Methoxy-3,4-dihydro-1H-isoquinolin-2-yl)-1-(2-methylsulfanyl-phenothiazin-10-yl)-ethanone], the pIC50 was 4.68.
For `Nc1cccc2c1CN(CCC(=O)NCCC(c1ccccc1)c1ccccc1)CC2` [Compound 127, 3-(8-Amino-3,4-dihydro-1H-isoquinolin-2-yl)-N-(3,3-diphenyl-propyl)-propionamide], the pIC50 was 6.19.
`COc1cccc2c1CN(CC(=O)NCCCOC(c1ccccc1)c1ccccc1)CC2` [Compound 94, N-(3-Benzhydryloxy-propyl)-2-(8-methoxy-3,4-dihydro-1H-isoquinolin-2-yl)-acetamide] was tested, and the pIC50 was 5.55.
`O=C(CN1CCc2cccc(O)c2C1)N(c1ccccc1)c1ccccc1` [Compound 149, 2-(8-Hydroxy-3,4-dihydro-1H-isoquinolin-2-yl)-N,N-diphenyl-acetamide] was tested, and the pIC50 was 5.04.
`COc1cccc2c1CN(CCNC(=O)NC(c1ccccc1)c1ccccc1)CC2` [Compound 135, 1-Benzhydryl-3-[2-(8-methoxy-3,4-dihydro-1H-isoquinolin-2-yl)-ethyl]-urea] was tested, and the pIC50 was 6.42.
For `O=C(CN1CCc2cccc(O)c2C1)Nc1ccccc1Oc1ccccc1` [Compound 185, 2-(8-Hydroxy-3,4-dihydro-1H-isoquinolin-2-yl)-N-(2-phenoxy-phenyl)-acetamide], the pIC50 was 5.73.
Compound `COc1cc2c(cc1OC)CN(CC(=O)N1c3ccccc3Sc3ccc(Cl)cc31)CC2` [Compound 153, 1-(2-Chloro-phenothiazin-10-yl)-2-(6,7-dimethoxy-3,4-dihydro-1H-isoquinolin-2-yl)-ethanone] has a pIC50 of 5.27.
`COc1cc2c(cc1OC)CN(CCNC(=S)NC(c1ccccc1)c1ccccc1)CC2` [Compound 134, 1-Benzhydryl-3-[2-(6,7-dimethoxy-3,4-dihydro-1H-isoquinolin-2-yl)-ethyl]-thiourea] was tested, and the pIC50 was 6.11.
Work on `COc1cc2c(cc1OC)CN(CCC(=O)NCCC(c1ccccc1)c1ccccc1)CC2` [Compound 125, 3-(6,7-Dimethoxy-3,4-dihydro-1H-isoquinolin-2-yl)-N-(3,3-diphenyl-propyl)-propionamide] yielded a pIC50 of 6.42.
With `COc1cccc2c1CN(CCNC(=O)N1c3ccccc3Sc3ccccc31)CC2` [Compound 162, Phenothiazine-10-carboxylic acid [2-(8-methoxy-3,4-dihydro-1H-isoquinolin-2-yl)-ethyl]-amide] the pIC50 was 6.01.
`COc1cccc2c1CN(CC(=O)N1c3ccccc3Oc3cnn(C)c31)CC2` [Compound 199, 2-(8-Methoxy-3,4-dihydro-1H-isoquinolin-2-yl)-1-(1-methyl-1H-4-oxa-1,2,9-triaza-cyclopenta[b]naphthalen-9-yl)-ethanone] showed a pIC50 of 5.08.
With `Nc1cccc2c1CN(CC(=O)NCCCC(c1ccccc1)c1ccccc1)C2` [Compound 100, 2-(4-Amino-1,3-dihydro-isoindol-2-yl)-N-(4,4-diphenyl-butyl)-acetamide] the pIC50 was 6.01.
Work on `Nc1cccc2c1CN(CCCC(c1ccc(F)cc1)c1ccc(F)cc1)CC2` [Compound 110, 2-[4,4-Bis-(4-fluoro-phenyl)-butyl]-1,2,3,4-tetrahydro-isoquinolin-8-ylamine] yielded a pIC50 of 6.32.
Compound `COc1cc2c(cc1OC)CN(CC(=O)NN(c1ccccc1)c1ccccc1)CC2` [Compound 169, (6,7-Dimethoxy-3,4-dihydro-1H-isoquinolin-2-yl)-acetic acid N′,N′-diphenyl-hydrazide] has a pIC50 of 4.52.
